The values below come from US12139520B2 (priority 2020, dated 2024).

Bridge positions count the residues as written; N and C are the ends. Square brackets hold non-standard residues; d marks the D form. Peptide text beside a SMILES is read from it. Hyp = O=C(O)[C@@H]1C[C@@H](O)CN1

One data set has as its target hAM1 receptor (Homo sapiens, UniProt O60895+Q16602). The data set is described as follows: cAMP assay for in vitro receptor activation, hAM1-R. In kind it is cell-based. Particulars: cAMP assay, hAM1 receptor; read-out: hAM1R EC50. Put shortly:
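Monoclonal stable hAM1-overexpressing cells, thawed from frozen stock; 8000 cells/well in DPBS + 0.05% casein + 0.5 mM IBMX; read-out cAMP.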

A short description of data set [1]: Physical stability of peptide analogues (Thioflavin T fibrillation). As to conditions: maximum ThT signal normalized between hAMY maximum and buffer background; 40° C., shaking, four days; pH 7 per table title. In kind it is physicochemical. Put shortly: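 Samples are stressed at 40 °C for four days, being shaken at 700 rpm before each 10-min fluorescence reading of 4 μM Thioflavin T. Buffers were pH 4 acetate or pH 7 phosphate. Reported values are smoothed maximum ThT signals as a percentage of the hAMY-to-background range.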

Sequence of hAM1 receptor (Q16602 23-461): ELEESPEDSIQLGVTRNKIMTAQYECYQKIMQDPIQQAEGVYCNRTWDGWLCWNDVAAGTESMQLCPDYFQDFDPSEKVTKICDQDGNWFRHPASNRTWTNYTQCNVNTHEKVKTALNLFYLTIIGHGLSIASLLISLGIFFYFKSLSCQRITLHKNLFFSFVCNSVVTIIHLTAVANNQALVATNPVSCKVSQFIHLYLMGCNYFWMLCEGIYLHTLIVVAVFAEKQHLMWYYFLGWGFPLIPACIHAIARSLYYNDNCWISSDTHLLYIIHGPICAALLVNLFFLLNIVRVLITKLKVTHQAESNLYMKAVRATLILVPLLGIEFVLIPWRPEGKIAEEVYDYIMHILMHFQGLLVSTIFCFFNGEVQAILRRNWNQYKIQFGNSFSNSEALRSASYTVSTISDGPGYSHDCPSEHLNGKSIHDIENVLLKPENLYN
Sequence of hAM1 receptor (O60895 43-175 partner): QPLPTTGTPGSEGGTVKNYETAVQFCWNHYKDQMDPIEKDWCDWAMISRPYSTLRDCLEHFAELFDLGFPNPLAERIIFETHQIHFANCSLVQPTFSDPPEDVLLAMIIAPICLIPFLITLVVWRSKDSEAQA

Regarding `CC[C@H](C)[C@H](NC(=O)[C@H](CCC(N)=O)NC(=O)[C@H](Cc1c[nH]cn1)NC(=O)[C@H](C)NC(=O)[C@H](CC(C)C)NC(=O)[C@H](CCCNC(=N)N)NC(=O)[C@H](CCC(N)=O)NC(=O)[C@@H](NC(=O)[C@@H](NC(=O)[C@@H]1CSSC[C@H](NC(=O)CN)C(=O)N[C@@H](CCCNC(=N)N)C(=O)N[C@@H]([C@@H](C)O)C(=O)NCC(=O)N[C@@H]([C@@H](C)O)C(=O)N1)[C@@H](C)O)C(C)C)C(=O)N[C@@H](Cc1c[nH]cn1)C(=O)N[C@@H](CCC(N)=O)C(=O)N[C@@H](Cc1ccccc1)C(=O)N[C@H](C(=O)N[C@@H](CC(=O)O)C(=O)N[C@@H](CCCCN)C(=O)N[C@@H](Cc1ccccc1)C(=O)N[C@@H](CCCCN)C(=O)N[C@@H](CC(=O)O)C(=O)N[C@@H](CC(N)=O)C(=O)N[C@H](C(=O)N[C@@H](C)C(=O)N1CCC[C@H]1C(=O)N[C@@H](CCCNC(=N)N)C(=O)N[C@@H](CO)C(=O)N[C@@H](CCCCN)C(=O)N[C@H](C(=O)N[C@@H](CO)C(=O)N1CCC[C@H]1C(=O)N[C@@H](CCC(N)=O)C(=O)N[C@H](C(=O)N1C[C@H](O)C[C@H]1C(N)=O)[C@@H](C)O)[C@@H](C)CC)C(C)C)[C@@H](C)O` [compound 193] (H-GCRTGTCTVQRLAHQIHQFTDKFKDNVAPRSKISPQT[Hyp]-NH2; disulfide 2-7; N-terminus assumed), at hAM1 receptor, the EC50 (usually the concentration at which the effect is half-maximal) was over 5 µM. In data set [1], the “Max ThT signal (%)” value is on record as 2.700%.

Take `CC[C@H](C)[C@H](NC(=O)[C@H](CCCCN)NC(=O)[C@H](CO)NC(=O)[C@H](CCCNC(=N)N)NC(=O)[C@@H]1CCCN1C(=O)[C@H](C)NC(=O)[C@@H](NC(=O)[C@H](CC(N)=O)NC(=O)[C@H](CC(=O)O)NC(=O)[C@H](CCCCN)NC(=O)[C@H](CC(=O)O)NC(=O)[C@H](CCCCN)NC(=O)[C@H](CC(=O)O)NC(=O)[C@@H](NC(=O)[C@H](Cc1ccccc1)NC(=O)[C@H](CCC(N)=O)NC(=O)[C@H](Cc1ccc(O)cc1)NC(=O)[C@@H](NC(=O)[C@H](CCC(N)=O)NC(=O)[C@H](Cc1c[nH]cn1)NC(=O)[C@H](C)NC(=O)[C@H](CC(C)C)NC(=O)[C@H](Cc1c[nH]c2ccccc12)NC(=O)[C@H](CCC(N)=O)NC(=O)[C@@H](NC(=O)[C@@H](NC(=O)[C@@H]1CSSC[C@H](NC(=O)CN)C(=O)N[C@@H](CCCNC(=N)N)C(=O)N[C@@H]([C@@H](C)O)C(=O)NCC(=O)N[C@@H]([C@@H](C)O)C(=O)N1)[C@@H](C)O)C(C)C)[C@@H](C)CC)[C@@H](C)O)C(C)C)C(=O)NCC(=O)N1CCC[C@H]1C(=O)N[C@@H](CC(N)=O)C(=O)NCC(=O)N1C[C@H](O)C[C@H]1C(N)=O` [compound 355] (H-GCRTGTCTVQWLAHQIYQFTDKDKDNVAPRSKIGPNG[Hyp]-NH2; disulfide 2-7; N-terminus assumed): on hAM1 receptor, the EC50 is over 5 µM. The “Max ThT signal (%)” value in data set [1] was determined as 25.350%.

Consider `CC[C@H](C)[C@H](NC(=O)[C@H](CCC(N)=O)NC(=O)[C@H](CCC(=O)O)NC(=O)[C@H](C)NC(=O)[C@H](CC(C)C)NC(=O)[C@H](Cc1c[nH]c2ccccc12)NC(=O)[C@H](CCC(N)=O)NC(=O)[C@@H](NC(=O)[C@@H](NC(=O)[C@@H]1CSSC[C@H](NC(=O)[C@@H](N)CCCCN)C(=O)N[C@@H](CC(N)=O)C(=O)N[C@@H]([C@@H](C)O)C(=O)N[C@@H](C)C(=O)N[C@@H]([C@@H](C)O)C(=O)N1)[C@@H](C)O)C(C)C)C(=O)N[C@@H](Cc1ccc(O)cc1)C(=O)N[C@@H](CCC(N)=O)C(=O)N[C@@H](Cc1ccccc1)C(=O)N[C@H](C(=O)N[C@@H](CC(=O)O)C(=O)N[C@@H](CCCCN)C(=O)N[C@@H](CC(=O)O)C(=O)N[C@@H](CCCCN)C(=O)N[C@@H](CC(=O)O)C(=O)N[C@@H](CC(N)=O)C(=O)N[C@H](C(=O)N[C@@H](C)C(=O)N1CCC[C@H]1C(=O)N1CCC[C@H]1C(=O)N[C@@H](Cc1ccc(O)cc1)C(=O)N[C@@H](CC(N)=O)C(=O)N[C@@H](CCC(=O)O)C(=O)NCC(=O)N[C@@H](CO)C(=O)N[C@@H](CC(N)=O)C(=O)NCC(=O)N1C[C@H](O)C[C@H]1C(N)=O)C(C)C)[C@@H](C)O` [compound 321] (H-KCNTATCTVQWLAEQIYQFTDKDKDNVAPPYNEGSNG[Hyp]-NH2; disulfide 2-7; N-terminus assumed), for which the EC50 at hAM1 receptor was over 5 µM. Also, the “Max ThT signal (%)” value in data set [1] is recorded as 21.700%.
